Like-named read-outs stand apart in the source and are kept apart here.
Assays:
wildtype LRRK2 = target: T1, wildtype LRRK2 (Homo sapiens, UniProt Q5S007); experiment: LRRK2 degradation assay, HiBit-tagged wildtype LRRK2 expressed from plasmid in HEK293 cells (Nano-Glo Dual-Luciferase); format: cell-based; conditions: 24 hours; for Dmax: read-out: **WT Dmax (%); for DC50: read-out: *WT DC50
T1 construct: expressed in transfected cells; host or cells: HEK293 (ATCC CRL-1573), transient transfection, mammalian expression vector with ubiquitin promoter
Outline: (§1)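 Degradation read as Nano-Glo HiBiT signal over firefly luciferase (cell number/viability) after 24 h compound exposure of transiently transfected HEK293 expressing C-terminally HiBiT-tagged wildtype or G2019S LRRK2. Data as % DMSO; DC50/Dmax fitted per plate, triplicate plates repeated twice.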

G2019S LRRK2 = target: T2, G2019S LRRK2 (Homo sapiens, UniProt Q5S007, G2019S); experiment: LRRK2 degradation assay, HiBit-tagged G2019S LRRK2 expressed from plasmid in HEK293 cells (Nano-Glo Dual-Luciferase); format: cell-based; conditions: 24 hours
T2 construct: expressed in transfected cells; host or cells: HEK293 (ATCC CRL-1573), transient transfection, mammalian expression vector with ubiquitin promoter
Outline: as §1

[1] = HiBit-tagged wildtype LRRK2 in HEK293 cells
[2] = HiBit-tagged G2019S LRRK2 in HEK293 cells
[3] = HiBit-tagged wildtype LRRK2, HEK293 cells
[4] = HiBit-tagged G2019S LRRK2, HEK293 cells

T1 sequence (Q5S007 whole entry): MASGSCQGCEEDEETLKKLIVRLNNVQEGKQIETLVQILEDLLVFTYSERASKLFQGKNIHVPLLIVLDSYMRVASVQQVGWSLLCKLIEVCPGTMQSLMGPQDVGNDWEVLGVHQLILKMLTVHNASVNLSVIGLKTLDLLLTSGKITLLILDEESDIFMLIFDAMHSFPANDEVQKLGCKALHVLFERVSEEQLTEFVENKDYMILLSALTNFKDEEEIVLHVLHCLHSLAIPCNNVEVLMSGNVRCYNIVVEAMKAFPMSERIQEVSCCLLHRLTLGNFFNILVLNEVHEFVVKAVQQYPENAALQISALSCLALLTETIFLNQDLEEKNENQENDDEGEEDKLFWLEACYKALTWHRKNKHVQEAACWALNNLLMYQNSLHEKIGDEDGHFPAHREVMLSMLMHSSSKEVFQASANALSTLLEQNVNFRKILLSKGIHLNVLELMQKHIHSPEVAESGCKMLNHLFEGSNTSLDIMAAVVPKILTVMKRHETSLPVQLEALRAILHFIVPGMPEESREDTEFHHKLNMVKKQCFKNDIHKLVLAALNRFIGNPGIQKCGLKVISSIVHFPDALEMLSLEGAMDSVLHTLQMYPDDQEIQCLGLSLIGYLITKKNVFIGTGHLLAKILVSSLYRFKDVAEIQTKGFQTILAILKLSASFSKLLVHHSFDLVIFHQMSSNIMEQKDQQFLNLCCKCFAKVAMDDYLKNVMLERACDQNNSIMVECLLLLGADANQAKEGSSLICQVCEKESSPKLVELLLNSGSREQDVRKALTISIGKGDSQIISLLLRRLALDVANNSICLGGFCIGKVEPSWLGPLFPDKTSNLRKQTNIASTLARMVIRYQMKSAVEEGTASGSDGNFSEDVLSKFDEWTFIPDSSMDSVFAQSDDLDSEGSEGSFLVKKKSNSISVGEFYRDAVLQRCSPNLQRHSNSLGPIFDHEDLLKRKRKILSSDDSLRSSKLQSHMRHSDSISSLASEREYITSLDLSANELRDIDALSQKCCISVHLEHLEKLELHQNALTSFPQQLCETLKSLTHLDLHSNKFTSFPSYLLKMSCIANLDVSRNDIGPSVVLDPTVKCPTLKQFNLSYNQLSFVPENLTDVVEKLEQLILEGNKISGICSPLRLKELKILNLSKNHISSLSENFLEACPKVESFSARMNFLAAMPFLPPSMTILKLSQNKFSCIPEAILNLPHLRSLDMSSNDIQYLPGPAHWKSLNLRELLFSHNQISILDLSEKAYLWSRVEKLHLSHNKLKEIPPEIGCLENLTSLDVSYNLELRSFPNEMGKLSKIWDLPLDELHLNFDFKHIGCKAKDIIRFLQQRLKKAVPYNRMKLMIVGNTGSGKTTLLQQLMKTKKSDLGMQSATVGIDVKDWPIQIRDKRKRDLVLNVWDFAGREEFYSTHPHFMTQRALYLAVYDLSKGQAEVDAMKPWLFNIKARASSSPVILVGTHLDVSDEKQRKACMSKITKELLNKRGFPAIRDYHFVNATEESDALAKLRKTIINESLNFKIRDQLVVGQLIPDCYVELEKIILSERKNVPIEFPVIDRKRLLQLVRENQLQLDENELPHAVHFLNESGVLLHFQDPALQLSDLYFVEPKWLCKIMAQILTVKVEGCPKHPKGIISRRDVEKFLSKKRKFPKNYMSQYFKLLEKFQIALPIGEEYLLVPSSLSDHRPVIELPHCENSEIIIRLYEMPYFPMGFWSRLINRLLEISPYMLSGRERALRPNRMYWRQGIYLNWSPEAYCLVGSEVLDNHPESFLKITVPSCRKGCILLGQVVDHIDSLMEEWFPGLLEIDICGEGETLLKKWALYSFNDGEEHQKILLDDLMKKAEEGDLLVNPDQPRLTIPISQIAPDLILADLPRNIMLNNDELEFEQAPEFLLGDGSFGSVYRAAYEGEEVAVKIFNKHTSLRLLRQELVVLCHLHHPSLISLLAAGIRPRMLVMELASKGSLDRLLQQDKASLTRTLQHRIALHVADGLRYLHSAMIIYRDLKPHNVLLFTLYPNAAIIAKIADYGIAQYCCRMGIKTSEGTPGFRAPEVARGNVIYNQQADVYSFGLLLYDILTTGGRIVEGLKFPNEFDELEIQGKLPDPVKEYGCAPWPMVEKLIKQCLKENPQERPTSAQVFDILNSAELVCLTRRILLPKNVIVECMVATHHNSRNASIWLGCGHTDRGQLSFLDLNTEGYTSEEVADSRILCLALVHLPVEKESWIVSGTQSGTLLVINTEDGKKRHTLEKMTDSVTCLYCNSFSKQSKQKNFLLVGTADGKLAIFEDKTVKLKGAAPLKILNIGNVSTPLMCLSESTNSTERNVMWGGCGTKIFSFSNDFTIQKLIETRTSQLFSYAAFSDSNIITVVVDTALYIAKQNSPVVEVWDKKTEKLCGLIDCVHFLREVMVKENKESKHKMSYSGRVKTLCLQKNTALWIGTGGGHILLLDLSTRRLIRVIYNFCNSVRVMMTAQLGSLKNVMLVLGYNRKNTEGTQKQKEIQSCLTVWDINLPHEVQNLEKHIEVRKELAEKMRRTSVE
T2 sequence (Q5S007 whole entry G2019S): as the sequence (Q5S007 whole entry) above, with G2019S counted along it

| Structure (SMILES) | Dmax (wildtype LRRK2; [1]) | DC50 (wildtype LRRK2; [1]) | DC50 (G2019S LRRK2; [2]) | Dmax (G2019S LRRK2; [2]) | Dmax (wildtype LRRK2; [3]) | DC50 (wildtype LRRK2; [3]) | DC50 (G2019S LRRK2; [4]) | Dmax (G2019S LRRK2; [4]) |
| --- | --- | --- | --- | --- | --- | --- | --- | --- |
| CC1(Oc2ccc3[nH]nc(-c4ccnc(N5CCOC6(CN(CC7CCN(CC8CCN(c9cccc%10c9C(=O)N(C9CCC(=O)NC9=O)C%10=O)CC8)CC7)C6)C5)c4)c3c2)CC1 (stereo not shown) [Compound 144, 2-(2,6-dioxo-3-piperidyl)-4-[4-[[4-[[8-[4-[5-(1-methylcyclopropoxy)-1H-indazol-3-yl]-2-pyridyl]-5-oxa-2,8-diazaspiro[3.5]nonan-2-yl]methyl]-1-piperidyl]methyl]-1-piperidyl]isoindoline-1,3-dione] | 50 to 70% | 0.01 to 0.05 µM | 0.01 to 0.05 µM | 50 to 70% |  |  |  |  |
| C[C@H]1CN(c2cc(-c3[nH]nc4ccc(OC5(C)CC5)cc34)ncn2)CCN1CC1CCN(CC2CCN(c3cccc4c3CN(C3CCC(=O)NC3=O)C4=O)CC2)CC1 (stereo partly drawn) [Compound 145, 3-[4-[4-[[4-[[(2S)-2-methyl-4-[6-[5-(1-methylcyclopropoxy)-2H-indazol-3-yl]pyrimidin-4-yl]piperazin-1-yl]methyl]-1-piperidyl]methyl]-1-piperidyl]-1-oxo-isoindolin-2-yl]piperidine-2,6-dione] | < 50% | < 0.01 µM | < 0.01 µM | 50 to 70% |  |  |  |  |
| CC1(Oc2ccc3n[nH]c(-c4cc(N5CCC(CN6CCN(CC7CCN(c8cccc9c8CN(C8CCC(=O)NC8=O)C9=O)CC7)CC6)CC5)ncn4)c3c2)CC1 (stereo not shown) [Compound 147, 3-[4-[4-[[4-[[1-[6-[5-(1-methylcyclopropoxy)-2H-indazol-3-yl]pyrimidin-4-yl]-4-piperidyl]methyl]piperazin-1-yl]methyl]-1-piperidyl]-1-oxo-isoindolin-2-yl]piperidine-2,6-dione] | ≥ 70% | < 0.01 µM | < 0.01 µM | ≥ 70% |  |  |  |  |
| CC1(Oc2ccc3[nH]nc(-c4cc(N5CCN(CC(F)(F)C6CCN(CC7CCN(c8cccc9c8C(=O)N(C8CCC(=O)NC8=O)C9=O)CC7)CC6)CC5)ncn4)c3c2)CC1 (stereo not shown) [Compound 148, 4-[4-[[4-[1,1-difluoro-2-[4-[6-[5-(1-methylcyclopropoxy)-1H-indazol-3-yl]pyrimidin-4-yl]piperazin-1-yl]ethyl]-1-piperidyl]methyl]-1-piperidyl]-2-(2,6-dioxo-3-piperidyl)isoindoline-1,3-dione] | < 50% | 0.01 to 0.05 µM | 0.01 to 0.05 µM | 50 to 70% |  |  |  |  |
| CC1(Oc2ccc3[nH]nc(-c4cc(N5CCO[C@@H](CN6CCC(OC7CCN(c8ccc9c(c8)C(=O)N(C8CCC(=O)NC8=O)C9=O)CC7)CC6)C5)ncn4)c3c2)CC1 (stereo partly drawn) [Compound 149, 2-(2,6-dioxo-3-piperidyl)-5-[4-[[1-[[(2S)-4-[6-[5-(1-methylcyclopropoxy)-1H-indazol-3-yl]pyrimidin-4-yl]morpholin-2-yl]methyl]-4-piperidyl]oxy]-1-piperidyl]isoindoline-1,3-dione] | 50 to 70% | 0.01 to 0.05 µM | 0.01 to 0.05 µM | 50 to 70% |  |  |  |  |
| CC1(Oc2ccc3[nH]nc(-c4cc(N5CCO[C@H](CN6CCC(OC7CCN(c8ccc9c(c8)C(=O)N(C8CCC(=O)NC8=O)C9=O)CC7)CC6)C5)ncn4)c3c2)CC1 (stereo partly drawn) [Compound 150, 2-(2,6-dioxopiperidin-3-yl)-5-{4-[(1-{[(2R)-4-{6-[5-(1-methylcyclopropoxy)-1H-indazol-3-yl]pyrimidin-4-yl}morpholin-2-yl]methyl}piperidin-4-yl)oxy]piperidin-1-yl}-2,3-dihydro-1H-isoindole-1,3-dione] | 50 to 70% | < 0.01 µM | < 0.01 µM | 50 to 70% |  |  |  |  |
| CC1(Oc2ccc3[nH]nc(-c4ccnc(N5CCOC6(CN(CC7CCN(CC8CCN(c9ccc%10c(c9)C(=O)N(C9CCC(=O)NC9=O)C%10=O)CC8)CC7)C6)C5)c4)c3c2)CC1 (stereo not shown) [Compound 151, 2-(2,6-dioxo-3-piperidyl)-5-[4-[[4-[[8-[4-[5-(1-methylcyclopropoxy)-1H-indazol-3-yl]-2-pyridyl]-5-oxa-2,8-diazaspiro[3.5]nonan-2-yl]methyl]-1-piperidyl]methyl]-1-piperidyl]isoindoline-1,3-dione] | 50 to 70% | < 0.01 µM | < 0.01 µM | 50 to 70% |  |  |  |  |
| CC1(Oc2ccc3[nH]nc(-c4cc(N5CCO[C@H](CN6CCN(CC7CCN(c8ccc9c(c8)C(=O)N(C8CCC(=O)NC8=O)C9=O)CC7)CC6)C5)ncn4)c3c2)CC1 (stereo partly drawn) [Compound 152, 2-(2,6-dioxo-3-piperidyl)-5-[4-[[4-[[(2R)-4-[6-[5-(1-methylcyclopropoxy)-1H-indazol-3-yl]pyrimidin-4-yl]morpholin-2-yl]methyl]piperazin-1-yl]methyl]-1-piperidyl]isoindoline-1,3-dione] |  |  |  |  | < 50% | < 0.01 µM | < 0.01 µM | < 50% |
| CC1(Oc2ccc3[nH]nc(-c4cc(N5CCO[C@@H](CN6CCN(CC7CCN(c8ccc9c(c8)C(=O)N(C8CCC(=O)NC8=O)C9=O)CC7)CC6)C5)ncn4)c3c2)CC1 (stereo partly drawn) [Compound 153, 2-(2,6-dioxopiperidin-3-yl)-5-{4-[(4-{[(2S)-4-{6-[5-(1-methylcyclopropoxy)-1H-indazol-3-yl]pyrimidin-4-yl}morpholin-2-yl]methyl}piperazin-1-yl)methyl]piperidin-1-yl}-2,3-dihydro-1H-isoindole-1,3-dione] |  |  |  |  | < 50% | < 0.01 µM | < 0.01 µM | < 50% |
| CC1(Oc2ccc3[nH]nc(-c4cc(N5CCO[C@H](CCN6CCN(CC7CCN(c8ccc9c(c8)C(=O)N(C8CCC(=O)NC8=O)C9=O)CC7)CC6)C5)ncn4)c3c2)CC1 (stereo partly drawn) [Compound 155, 2-(2,6-dioxopiperidin-3-yl)-5-{4-[(4-{2-[(2R)-4-{6-[5-(1-methylcyclopropoxy)-1H-indazol-3-yl]pyrimidin-4-yl}morpholin-2-yl]ethyl}piperazin-1-yl)methyl]piperidin-1-yl}-2,3-dihydro-1H-isoindole-1,3-dione] |  |  |  |  | 50 to 70% | < 0.01 µM | < 0.01 µM | 50 to 70% |
| CC1(Oc2ccc3[nH]nc(-c4cc(N5CCN(C[C@@H]6CN(CC7CCN(c8ccc9c(c8)C(=O)N(C8CCC(=O)NC8=O)C9=O)CC7)CCO6)CC5)ncn4)c3c2)CC1 (stereo partly drawn) [Compound 156, 2-(2,6-dioxo-3-piperidyl)-5-[4-[[(2R)-2-[[4-[6-[5-(1-methylcyclopropoxy)-1H-indazol-3-yl]pyrimidin-4-yl]piperazin-1-yl]methyl]morpholin-4-yl]methyl]-1-piperidyl]isoindoline-1,3-dione] |  |  |  |  | 50 to 70% | < 0.01 µM | < 0.01 µM | < 50% |
| CC1(Oc2ccc3[nH]nc(-c4cc(N5CCN(C[C@H]6CN(CC7CCN(c8ccc9c(c8)C(=O)N(C8CCC(=O)NC8=O)C9=O)CC7)CCO6)CC5)ncn4)c3c2)CC1 (stereo partly drawn) [Compound 157, 2-(2,6-dioxopiperidin-3-yl)-5-(4-{[(2S)-2-[(4-{6-[5-(1-methylcyclopropoxy)-1H-indazol-3-yl]pyrimidin-4-yl}piperazin-1-yl)methyl]morpholin-4-yl]methyl}piperidin-1-yl)-2,3-dihydro-1H-isoindole-1,3-dione] |  |  |  |  | 50 to 70% | < 0.01 µM | < 0.01 µM | ≥ 70% |
| CC1(Oc2ccc3[nH]nc(-c4cc(N5CCN(C[C@@H]6CN(CCC7CCN(c8ccc9c(c8)C(=O)N(C8CCC(=O)NC8=O)C9=O)CC7)CCO6)CC5)ncn4)c3c2)CC1 (stereo partly drawn) [Compound 158, 2-(2,6-dioxo-3-piperidyl)-5-[4-[2-[(2R)-2-[[4-[6-[5-(1-methylcyclopropoxy)-1H-indazol-3-yl]pyrimidin-4-yl]piperazin-1-yl]methyl]morpholin-4-yl]ethyl]-1-piperidyl]isoindoline-1,3-dione] |  |  |  |  | ≥ 70% | < 0.01 µM | < 0.01 µM | ≥ 70% |
| C[C@H]1CN(c2cc(-c3n[nH]c4ccc(OC5(C)CC5)cc34)ncn2)CCN1CC1CCN(CCC2CCN(c3ccc4c(c3)C(=O)N(C3CCC(=O)NC3=O)C4=O)CC2)CC1 (stereo partly drawn) [Compound 159, 2-(2,6-dioxo-3-piperidyl)-5-[4-[2-[4-[[(2S)-2-methyl-4-[6-[5-(1-methylcyclopropoxy)-1H-indazol-3-yl]pyrimidin-4-yl]piperazin-1-yl]methyl]-1-piperidyl]ethyl]-1-piperidyl]isoindoline-1,3-dione] |  |  |  |  | < 50% | < 0.01 µM | < 0.01 µM | 50 to 70% |
| CC1(Oc2ccc3[nH]nc(-c4ccnc(N5CC6(CN(CC7CCN(CC8CCN(c9ccc%10c(c9)C(=O)N(C9CCC(=O)NC9=O)C%10=O)CC8)CC7)C6)C5)c4)c3c2)CC1 (stereo not shown) [Compound 161, 2-(2,6-dioxo-3-piperidyl)-5-[4-[[4-[[2-[4-[5-(1-methylcyclopropoxy)-1H-indazol-3-yl]-2-pyridyl]-2,6-diazaspiro[3.3]heptan-6-yl]methyl]-1-piperidyl]methyl]-1-piperidyl]isoindoline-1,3-dione] |  |  |  |  | 50 to 70% | 0.01 to 0.05 µM | 0.01 to 0.05 µM | 50 to 70% |
| CC1(Oc2ccc3[nH]nc(-c4ccnc(N5CCC56CN(CC5CCN(CC7CCN(c8ccc9c(c8)C(=O)N(C8CCC(=O)NC8=O)C9=O)CC7)CC5)C6)c4)c3c2)CC1 (stereo not shown) [Compound 162, 2-(2,6-dioxo-3-piperidyl)-5-[4-[[4-[[1-[4-[5-(1-methylcyclopropoxy)-1H-indazol-3-yl]-2-pyridyl]-1,6-diazaspiro[3.3]heptan-6-yl]methyl]-1-piperidyl]methyl]-1-piperidyl]isoindoline-1,3-dione] |  |  |  |  | < 50% | 0.05 to 0.1 µM | ≥ 0.1 µM | < 50% |

Reference: US12559506B2, “Indazole based compounds and associated methods of use” (Arvinas Operations, Inc., priority 2021, dated 2026)
